Laboratory results as given in US4753928A, “Process for obtaining sexual products from mammals suitable for natural or artificial fertilization” (INNOFINANCE Altalanos Innovacios Pengintezet, priority 1985, dated 1988).
Values joined by “and” are separate entries in the source; they are usually repeats but may differ in a detail not shown here. Equal entries are not always repeated. Where a SMILES comes first, the peptide text is derived from it. [ ]: non-standard residue; d: D form. pGlu = O=C1CC[C@@H](C(=O)O)N1

What was measured:
[1] = test system: intact ovaries in organ culture; test: Production of ova in cattle in vitro from ovary organ culture; format: cell-based; conditions: 10^-9 -10^-8 g/ml; spontaneous ovulations and punctured ova
Procedure: Cattle in slaughter-house was stunned and bled, after which intact ovaries were removed within 30-55 minutes. Then in laboratory conditions they were placed in […]. To this culture liquid D-Phe^6, Gln^8, desGly^10 -GnRH ethyl-amide was given in a concentration of 10^-9 -10^-8 g/ml. Ovary stock took 16 to 43 hours to ovulate in organ culture. Out of the spontaneous ovulations of in vitro ovaries and from ova obtained with puncturing 85% were capable to continue meiosis (reductive cell division) and to be successfully fertilized in vitro by tractable sperms of cattle.

infant calves = test: Inducing super-ovulation in infant cattle; format: in vivo
Procedure: 8 65-old day infant calves were treated for 8 days, three times daily, with 2 μg of D-Phe^6, Gln^8, desGly^10 -GnRH ethylamide each. After a day of rest, on the 10th day 100 μg active ingredient was administered each intramuscularly. Following the last injection, ovaries from both sides were removed; generally 5-11 developed Graf-follicles were registered in each ovary. 50% of the follicles were already past the stage when tight to the touch, i.e. they were follicles just prior to ovulation.

female lambs = test: Inducing super-ovulation in infant sheep; format: in vivo; conditions: 10 μg twice daily 5 days i.m., 70 μg on 6th day; 50-day old lambs
Procedure: 10 50-day old female lambs were administered each intramuscularly twice daily for 5 days 10 μg doses each of D-Phe^6, Gln^8, desGly^10 -GnRH ethylamide. […] Evaluation of treated and untreated control animals was carried out with the aid of laparoscopy. The results were similar to those outlined in Examples 1 to 4.

female wild cats = test: Cancelling seasonal unoestrus in adult wild cat; format: in vivo, Felis silvestris; conditions: after 4 days; i.m. 100 μg then 500 μg two hours later, repeated after 48 hours
Procedure: 2 female wild cats from Zoo, with an average weight of 6 kg and having under normal conditions a cycle between February and March, were treated with D-Phe^6, Gln^8, desGly^10 -GnRH ethyl-amide. Before treatments began, abdominal cavity was opened under narcosis in order to see the condition of both ovaries. After sewing up the abdomen, animals were treated every second day, four times in total through intramuscular injection of the active ingredient diluted in normal saline solution. A two-hour interal was kept between the first and second injection; the first dose was 100 μg, the second one 500 μg. This was followed after 48 hours by the third dose of 100 μg, then two hours later by the fourth dose of 500 μg. On the 0., 2., 4. and 8th day of the treatment abdomen was opened under narcosis and changes in condition of the ovaries were visually evaluated. After treatment both ovaries were removed, fixed and their hystological evaluation was carried out.
On the 0. day of the treatment on left side ovary of both animals 3-4 supposed secondary follicles and 1 degenerated old corpus luteum, while on the right side ovary 5-6 supposed secondary follicles could be seen. […]

male orang-utan = test: Treating aspermia caused by non-natural keeping in orang-utan; format: in vivo; conditions: 47th day
From the text: A 18-year old, male orang-utan of a weight of ca. […] and belonging to Zoo came into captivity in its infancy. Till the treatment it had three owners. […] It has been living in its present location for the past 11 years, it had neither a companion of his own kind nor a mate. […] The Zoo has been contacted that in case the animal is of Bornean Sub-species and fertile, it would be purchased. […] A factor questioning fertility in the case-history was the absence of aggressiveness typical of the male primates and the ceasing of regular masturbation during hospitalization 5-6 years before. Sperm sample was taken from the animal under narcosis, using electrical means. In the ejaculate secretion of the side gonads was exclusively found, in three parts 1--1 droplet, altogether a quantity of 0.1 ml.
Thereafter the animal was treated twice weekly with a dose of 100 μg D-Phe^6, Gln^8, DesGly^10 -GnRH ethylamide, i.e. similarly to the method used in Example 11. During treatment movement of the animal became more live and active. This, however, could not be attributed to the growth of libido, since it could have been caused by the fear from firing airgun injector. Treatment was finished on the 47th day following the first shot and ejaculate was taken twice under renewed narcosis and one hour interval; in this way altogether 3.2 ml of sperms were obtained. Density of sperm was 3, motility 35%. Amount of degenerated sperms reached 20%, practically made up of entirely young development forms (neck and middle part plasma droplets).

[2] = test system: subordinate male chimpanzees; test: Treating physiological oligospermia of chimpanzee; format: in vivo
Procedure: In our case, apart from sperm obtained from the dominant males, that was stored in sperm bank, we had to have expressly, for the purpose of insemination, sperm from the 4 subordinate males (all sexually mature). Before the treatment began, all animals were ejaculated under narcosis through electric shock method. Density and motility of the ejaculate was evaluated under microscope, then it was put under deep freeze probe (-196° C.). […] Thereafter male chimpanzees weighing 60 to 90 kilograms were administered intramuscularly 100 μg of D-Phe^6, Gln^8, desGly^10 -GnRH ethylamide diluted in 1 ml of normal saline solution using compressed air injection technique. […] Qualitative and quantitative characteristics of the ejaculates were similar to those obtained from the dominant male and to values published in technical literature.
After diluting the ejaculate in a 1:1 ratio, deep-freeze test was positive and the 60% motility decreased to only 45%. Sperms of this quality either fresh or in deep freeze are entirely suitable for the purposes of insemination.

Bengalian tiger = test: Stimulating normospermia to hyperspermia in Bengalian tiger; format: in vivo
Procedure: A 8-year old Bengalian tiger of a weight of 200 kg belonging to Zoo copulated regularly, its mate becoming pregnant regularly for years. With this knowledge, under narcosis and in the mating season sperm sample was taken electrically and it was established that the sample density reached 3, motility was 30% and quantity of ejaculate amounted to 0.2 ml. […] Deep freezing of such minute quantity of ejaculate, however, is for technical reasons not possible. In order to protect the animal and to avoid liver damage, narcosis can be repeated every four days at the most and kept on for 4-5 hours. Collecting of sperms this way is unaccomplishable. In our process the male was separated from the female and was treated daily for 12 days with 10 μg each of D-Phe^6, Gln^8, DesGly^10 -GnRH ethyl-amide which was diluted in 1 ml of normal saline solution and administered intramuscularly, using compressed air injection technique. On the 12th day, through electrical means the animal was ejaculated under narcosis twice with an hour time interval; in this way 1 ml and 0.8 ml of sperms were obtained. The two samples were combined and examined; a density of 4 was established, motility being 70%. Sperm samples were deep frozen and 21 doses suitable for artificial fertilization were prepared.

[3] = test system: ovary of domestic cat kittens; test: Stimulating function of ovary in domestic cat (D-Phe6,Trp7,Leu8-GnRH); format: in vivo; conditions: 100 μg i.m. every second day, three times; 45 days old kittens
Procedure: 5 kittens each weighing 0.3 kg and being 45 days old were treated with D-Phe^6, Trp^7, Leu^8 -GnRH analogue in such a way that prior to treatments the left side ovary was removed under narcosis. Then the […] were treated every second day, three times in all with doses of 100 μg each of the active ingredient diluted in normal saline solution administered intramuscularly. After treatment the remaining right side ovaries were removed, examined visually, then, after fixing, hystological examination was carried out.
Ovaries removed prior to treatment were quite homogeneous, butter-yellow in colour, growing follicle could not be detected in them either visually or hystologically. Following treatment 7-8 corpora haemorrhagica and several (not countable) growing follicles were found.

Siberian tiger male = test: Treating Siberian tiger infertile owing to degenerated spermatogeny; format: in vivo
From the text: A 8-year old Siberian tiger male of 120 kg and belonging to Zoo has lived with its mate for three years. Regular copulations took place on oestrus of the female, but no offspring was produced in any year. The possiblity that the female was at fault had to be excluded because previously she had pregnancy from an other male and the young ones born were reared as well. From the male in question through electrical means ejaculate was obtained under narcosis and it was established that it was very thin, 4-5 degenerate, vibrating sperms could be seen in each field of vision. Forms of degeneration were characteristic of the younger phases of spermiogenesis. Thereafter the animal was treated oncy weekly intramuscularly with a 100 μg dose of D-Phe^6, Trp^7, Leu^8 -GnRH diluted in normal saline solution of 1 ml, using the compressed air injection technique. The male was kept with its mate and they copulated regularly during the treatments. […] Calculating from the time of birth, fertile copulation ensued 40-50 days following the first treatment.

Q: Which “ova capable to continue meiosis and to be fertilized in vitro” value [1] does the source give for CCNC(=O)[C@@H]1CCCN1C(=O)[C@H](CCC(N)=O)NC(=O)[C@H](CC(C)C)NC(=O)[C@@H](Cc1ccccc1)NC(=O)[C@H](Cc1ccc(O)cc1)NC(=O)[C@H](CO)NC(=O)[C@H](Cc1c[nH]c2ccccc12)NC(=O)[C@H](Cc1c[nH]cn1)NC(=O)[C@@H]1CCC(=O)N1 [D-Phe^6, Gln^8, desGly^10 -GnRH ethylamide] ([pGlu]HWSY[dF]LQP-NHEt) here?
A: Its value is 85%.

Q: What about the “developed Graf-follicles in each ovary” value (infant calves; 2 μg three times daily 8 days, 100 μg i.m. on 10th day, 65-day old calves) of the same compound?
A: Its value is 5-11.

Q: And the “follicles just prior to ovulation” value (infant calves; same treatment)?
A: The value was 50%.

Q: And the “ovulations in each animal” value (female lambs)?
A: Its value is 3-9.

Q: And the “development of secondary follicles” value (female wild cats)?
A: Its value is “all secondary follicles turned into Graf-follicles ovulated”.

Q: And the degenerated sperms (male orang-utan)?
A: The degenerated sperms was 20%.

Q: And the density of sperm (male orang-utan)?
A: The density of sperm was 3.

Q: And the sperm motility (male orang-utan)?
A: The sperm motility was 35%.

Q: What about the “sperm volume obtained altogether” value (male orang-utan; 100 μg twice weekly, two ejaculations) of the same compound?
A: The value was 3.2 mL.

Q: What about the “motility of ejaculate after deep freeze test” value ([2]; 4 weeks after first treatment) of the same compound?
A: Its value is “less than 10%”.

Q: And the “young sperm formations in ejaculate” value ([2]; 4 weeks after first treatment, 100 μg i.m.)?
A: The value was 40-60%.

Q: And the defective sperms ([2]; 60 days after first treatment)?
A: The defective sperms was “below 30%”.

Q: And the sperm motility ([2]; 60 days after first treatment)?
A: The sperm motility was “exceeded 60%”.

Q: What about the “motility after deep-freeze test” value ([2]; 60 days, ejaculate diluted 1:1) of the same compound?
A: Its value is 45%.

Q: What about the “density of combined sample” value (Bengalian tiger; 12th day) of the same compound?
A: Its value is 4.

Q: What about the sperm motility (Bengalian tiger; 12th day, combined sample) of the same compound?
A: Its sperm motility is 70%.

Q: And the “sperm volume obtained per ejaculation” value (Bengalian tiger; 12th day, 10 μg daily i.m. for 12 days, two ejaculations one hour apart, 0.2 ml before treatment, Gln^8, DesGly^10 -GnRH ethyl-amide)?
A: The value was 1 mL and 0.8 mL.

Q: And the “motility of remelting sperms” value (Bengalian tiger; after deep freezing)?
A: The value was 60%.

Q: And the “doses suitable for artificial fertilization prepared” value (Bengalian tiger; deep frozen samples)?
A: The value was 21.

Q: Which “corpora haemorrhagica on remaining ovary” value [3] does the source give for CC(C)C[C@H](NC(=O)[C@H](Cc1c[nH]c2ccccc12)NC(=O)[C@@H](Cc1ccccc1)NC(=O)[C@H](Cc1ccc(O)cc1)NC(=O)[C@H](CO)NC(=O)[C@H](Cc1c[nH]c2ccccc12)NC(=O)[C@H](Cc1c[nH]cn1)NC(=O)[C@@H]1CCC(=O)N1)C(=O)N1CCC[C@H]1C(=O)NCC(N)=O [D-Phe^6, Trp^7, Leu^8 -GnRH] ([pGlu]HWSY[dF]WLPG-NH2) here?
A: Its value is 7-8.

Q: What about the “pregnancy of mate / offspring” value (Siberian tiger male; 100 μg once weekly i.m.) of the same compound?
A: The value was “The female became pregnant, producing three healthy offsprings”.

Q: What about the “time of fertile copulation following the first treatment” value (Siberian tiger male; calculated from time of birth) of the same compound?
A: Its value is 40 to 50 days.
